Article PMC6210068 (ACS Omega, 2018)
Like-named read-outs stand apart in the source and are kept apart here.

How the values were obtained:
[1] = target: hNOP (Homo sapiens, UniProt P41146); assay: Radioligand binding at NOP
[2] = target: hDAT (Homo sapiens, UniProt Q01959); assay: Radioligand binding at DAT; details: for DAT, inhibition, % of control at 10 μM: [3H]WIN35428, negative = enhanced radioligand binding
[3] = target: T1, KOR (Homo sapiens, UniProt P41145); assay: β-arrestin-recruitment TANGO assay at KOR; type: cell-based; details: 10 μM; vs naloxone 121 = 100% inhibition; agonist 109 (3 nM)
[4] = target: T2, DOR (Homo sapiens, UniProt P41143); assay: β-arrestin-recruitment TANGO assay at DOR; type: cell-based; details: 10 μM; for DOR Antag (%): vs naloxone 121 = 100% inhibition; for DOR Ag (%): vs standard agonist = 100%
[5] = target: rat kidney TSPO (Rattus norvegicus, UniProt P16257); assay: Radioligand binding at TSPO; details: for Ki: TSPO, rat TSPO, [3H]PK11195
[6] = target: T2, DOR; assay: Radioligand binding at DOR
[7] = target: T3, MOR (Homo sapiens, UniProt P35372); assay: β-arrestin-recruitment TANGO assay at MOR; type: cell-based; details: 10 μM; for MOR Antag (%): vs naloxone 121 = 100% inhibition, agonist 99 (300 nM); for MOR Ag (%): vs standard agonist = 100%
[8] = target: T4, hA1AR (Homo sapiens, UniProt P30542); assay: hA1AR binding; details: for inhibition at 10 µM: read-out: binding inhibition at hA1AR (% at 10 μM)
T4 sequence (P30542 1-326): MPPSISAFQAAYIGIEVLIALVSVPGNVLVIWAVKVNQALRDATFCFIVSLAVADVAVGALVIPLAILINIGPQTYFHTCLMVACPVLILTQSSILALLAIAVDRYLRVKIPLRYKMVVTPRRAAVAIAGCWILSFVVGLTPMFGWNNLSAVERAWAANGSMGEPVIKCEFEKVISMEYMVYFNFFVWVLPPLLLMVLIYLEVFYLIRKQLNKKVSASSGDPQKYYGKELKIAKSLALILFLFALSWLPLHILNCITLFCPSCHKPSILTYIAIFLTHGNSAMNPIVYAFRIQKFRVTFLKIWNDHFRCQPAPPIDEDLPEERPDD

[9] = target: T3, MOR; assay: biochemical; type: binding; details: for MOR, inhibition of radioligand binding at 10 μM (class): Table 2
[10] = target: T1, KOR; assay: biochemical; type: binding; details: for Ki: KOR, [3H]U69593, mean ± SEM, N = 2–4
[11] = target: T5, hA3AR (Homo sapiens, UniProt P0DMS8); assay: A3AR binding
T5 sequence (P0DMS8 1-318): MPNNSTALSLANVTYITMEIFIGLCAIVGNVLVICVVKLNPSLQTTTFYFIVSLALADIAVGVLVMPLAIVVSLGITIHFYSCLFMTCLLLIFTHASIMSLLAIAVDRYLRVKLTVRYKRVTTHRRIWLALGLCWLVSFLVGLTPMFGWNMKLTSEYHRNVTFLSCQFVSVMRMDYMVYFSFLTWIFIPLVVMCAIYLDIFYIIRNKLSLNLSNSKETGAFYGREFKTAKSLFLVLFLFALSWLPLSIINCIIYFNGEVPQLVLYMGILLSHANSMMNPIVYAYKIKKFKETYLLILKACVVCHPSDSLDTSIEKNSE

[12] = target: T1, KOR; type: cell-based
[13] = target: hA2AAR (Homo sapiens, UniProt P29274); assay: hA2AAR binding; details: read-out: binding inhibition at hA2AAR (% at 10 μM)
[14] = target: T6, rat σ2 receptor (Rattus norvegicus, UniProt Q5U3Y7); assay: PDSP binding, σ2 receptor
T6 sequence (Q5U3Y7 1-176): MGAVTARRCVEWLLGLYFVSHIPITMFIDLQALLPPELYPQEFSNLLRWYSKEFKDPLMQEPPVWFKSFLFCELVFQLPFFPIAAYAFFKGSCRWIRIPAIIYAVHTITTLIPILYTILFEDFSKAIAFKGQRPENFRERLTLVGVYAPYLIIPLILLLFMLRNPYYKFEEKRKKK

T2 sequence (P41143 whole entry): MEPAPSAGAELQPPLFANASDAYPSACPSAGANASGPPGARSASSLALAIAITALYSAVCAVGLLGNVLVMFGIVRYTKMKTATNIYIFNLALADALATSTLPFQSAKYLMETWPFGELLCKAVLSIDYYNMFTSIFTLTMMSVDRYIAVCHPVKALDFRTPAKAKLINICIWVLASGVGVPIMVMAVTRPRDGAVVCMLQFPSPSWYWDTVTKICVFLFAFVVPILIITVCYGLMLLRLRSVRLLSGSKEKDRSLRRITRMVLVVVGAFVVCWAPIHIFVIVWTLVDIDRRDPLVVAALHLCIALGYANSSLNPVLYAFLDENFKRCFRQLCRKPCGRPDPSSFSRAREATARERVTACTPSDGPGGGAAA
Sequence of hDAT (Q01959 whole entry): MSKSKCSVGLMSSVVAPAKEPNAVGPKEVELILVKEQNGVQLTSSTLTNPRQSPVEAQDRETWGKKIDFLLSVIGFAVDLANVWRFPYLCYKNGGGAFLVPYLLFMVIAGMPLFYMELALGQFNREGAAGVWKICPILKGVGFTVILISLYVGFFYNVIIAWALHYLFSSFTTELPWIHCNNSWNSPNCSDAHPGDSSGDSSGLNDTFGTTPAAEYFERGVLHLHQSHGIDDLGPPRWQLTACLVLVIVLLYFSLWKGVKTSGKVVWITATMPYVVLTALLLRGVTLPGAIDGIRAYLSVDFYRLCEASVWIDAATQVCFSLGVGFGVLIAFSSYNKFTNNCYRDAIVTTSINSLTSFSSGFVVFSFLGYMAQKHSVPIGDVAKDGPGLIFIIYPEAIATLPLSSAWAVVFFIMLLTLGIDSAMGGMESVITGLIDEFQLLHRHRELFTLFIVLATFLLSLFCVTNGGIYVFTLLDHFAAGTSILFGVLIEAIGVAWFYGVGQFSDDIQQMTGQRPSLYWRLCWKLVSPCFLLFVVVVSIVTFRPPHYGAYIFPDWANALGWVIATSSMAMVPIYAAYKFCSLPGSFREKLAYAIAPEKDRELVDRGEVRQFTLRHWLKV
T1 sequence (P41145 whole entry): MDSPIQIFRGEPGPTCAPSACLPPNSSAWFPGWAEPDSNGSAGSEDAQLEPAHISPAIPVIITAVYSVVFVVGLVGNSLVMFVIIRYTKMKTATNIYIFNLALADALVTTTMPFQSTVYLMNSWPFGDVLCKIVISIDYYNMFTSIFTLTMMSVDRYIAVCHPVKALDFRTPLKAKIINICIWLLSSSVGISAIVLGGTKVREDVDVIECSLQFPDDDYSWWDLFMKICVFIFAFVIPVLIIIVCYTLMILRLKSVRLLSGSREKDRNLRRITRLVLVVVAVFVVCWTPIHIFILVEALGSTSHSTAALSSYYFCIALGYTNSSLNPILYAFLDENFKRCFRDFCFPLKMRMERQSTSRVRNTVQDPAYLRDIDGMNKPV
Sequence of rat kidney TSPO (P16257 whole entry): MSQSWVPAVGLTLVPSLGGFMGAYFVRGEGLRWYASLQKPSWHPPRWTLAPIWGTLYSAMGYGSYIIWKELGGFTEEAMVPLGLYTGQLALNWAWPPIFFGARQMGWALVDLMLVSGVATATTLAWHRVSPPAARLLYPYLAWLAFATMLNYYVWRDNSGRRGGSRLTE
Sequence of hNOP (P41146 whole entry): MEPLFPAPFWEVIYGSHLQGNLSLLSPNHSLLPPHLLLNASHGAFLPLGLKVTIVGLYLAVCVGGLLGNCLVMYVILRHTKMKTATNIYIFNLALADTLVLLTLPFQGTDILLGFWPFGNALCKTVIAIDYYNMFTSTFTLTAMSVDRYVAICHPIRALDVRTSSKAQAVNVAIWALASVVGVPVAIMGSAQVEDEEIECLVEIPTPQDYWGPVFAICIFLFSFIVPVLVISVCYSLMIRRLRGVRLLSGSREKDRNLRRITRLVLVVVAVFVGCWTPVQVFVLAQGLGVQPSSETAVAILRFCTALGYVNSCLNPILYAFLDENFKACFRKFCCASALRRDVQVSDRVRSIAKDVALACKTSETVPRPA
Sequence of hA2AAR (P29274 whole entry): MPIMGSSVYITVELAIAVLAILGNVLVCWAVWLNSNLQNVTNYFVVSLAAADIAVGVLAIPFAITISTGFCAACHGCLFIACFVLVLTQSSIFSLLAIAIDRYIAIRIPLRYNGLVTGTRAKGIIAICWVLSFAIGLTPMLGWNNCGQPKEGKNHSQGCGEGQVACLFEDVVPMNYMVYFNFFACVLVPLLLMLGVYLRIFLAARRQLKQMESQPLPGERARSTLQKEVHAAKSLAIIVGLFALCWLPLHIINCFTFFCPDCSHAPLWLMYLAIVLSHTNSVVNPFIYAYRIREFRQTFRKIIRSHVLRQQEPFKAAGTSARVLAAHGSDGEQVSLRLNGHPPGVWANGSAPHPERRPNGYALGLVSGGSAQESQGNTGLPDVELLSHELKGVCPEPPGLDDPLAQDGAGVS
T3 sequence (P35372 whole entry): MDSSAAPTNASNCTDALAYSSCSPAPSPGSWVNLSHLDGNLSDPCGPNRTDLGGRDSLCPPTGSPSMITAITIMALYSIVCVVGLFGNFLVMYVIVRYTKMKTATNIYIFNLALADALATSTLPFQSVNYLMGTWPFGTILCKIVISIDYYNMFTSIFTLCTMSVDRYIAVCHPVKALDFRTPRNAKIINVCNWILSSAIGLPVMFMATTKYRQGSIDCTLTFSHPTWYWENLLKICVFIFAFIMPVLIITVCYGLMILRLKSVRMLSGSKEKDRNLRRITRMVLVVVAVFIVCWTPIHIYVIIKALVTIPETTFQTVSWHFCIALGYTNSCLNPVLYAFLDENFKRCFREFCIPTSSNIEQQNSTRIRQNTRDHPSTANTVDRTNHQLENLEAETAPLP

DAT, inhibition, % of control at 10 μM [2]	Ki [5] [µM]	Ki [6] [µM]	inhibition at 10 µM [8] [%]	Ki [10] [µM]	Ki [9] [µM]	Ki [11] [µM]	Structure (SMILES)	other results
16%	~0.3	2.48 ± 0.79					CNC(=O)[C@@]12C[C@@H]1[C@@H](n1cnc3c(NCc4cccc(Cl)c4)nc(C#Cc4ccc(F)c(F)c4)nc31)[C@H](O)[C@@H]2O [compound 4]	Ki [1]: 4.56 ± 0.45 µM; KOR Antag (%) [3]: 125%; DOR Antag (%) [4]: 25.3%; DOR Ag (%) [4]: –10.3%; MOR Antag (%) [7]: 18.8%; MOR Ag (%) [7]: –1.6%
21%	~0.3		22				CNC(=O)[C@@]12C[C@@H]1[C@@H](n1cnc3c(NCc4cccc(Cl)c4)nc(C#Cc4ccc(F)cc4)nc31)[C@H](O)[C@@H]2O [compound 7]	
–159%	1.31 ± 0.21		22				CCCNc1nc(C#Cc2ccc(Cl)s2)nc2c1ncn2[C@H]1[C@H](O)[C@H](O)[C@]2(C(=O)NC)C[C@H]12 [compound 18]	DOR, inhibition of radioligand binding at 10 μM (class) ([6]; Table 1): ^e (30–50% inhibition of radioligand binding at 10 μM)
–430%	1.52 ± 0.25			0.975 ± 0.198			CCOC(=O)[C@@]12C[C@@H]1[C@@H](n1cnc3c(NC)nc(C#Cc4ccc(Br)s4)nc31)[C@H](O)[C@@H]2O [compound 25]	Ki [1]: > 10 µM; MOR, inhibition of radioligand binding at 10 μM (class) [9]: ^c (30–50% inhibition of radioligand binding at 10 μM); KOR Antag (%) [3]: 88.1%; DOR Antag (%) [4]: –6.0%; DOR Ag (%) [4]: –1.7%; DOR, inhibition of radioligand binding at 10 μM (class) ([6]; Table 2): ^c (30–50% inhibition of radioligand binding at 10 μM); MOR Antag (%) [7]: 22.6%; MOR Ag (%) [7]: –1.2%
–102 ± 8 (3) %	0.765 ± 0.118	0.437 ± 0.094		0.039 ± 0.001	0.368 ± 0.135	0.466 ± 0.02	CCOC(=O)[C@@]12C[C@@H]1[C@@H](n1ccc3c(NC)nc(C#Cc4ccc(Br)s4)nc31)[C@H](O)[C@@H]2O [compound 29, Ethyl(1S,2R,3S,4R,5S)-4-(2-((5-bromothiophen-2-yl)ethynyl)-4-(methylamino)-7H-pyrrolo[2,3-d]pyrimidin-7-yl)-2,3-dihydroxybicyclo[3.1.0]hexane-1-carboxylate]	Ki [1]: 2.76 ± 0.67 µM; EC50 [2]: > 1 µM; preference for KOR in comparison to DOR ([10]; ratio of Ki): 11 fold; preference for KOR in comparison to MOR ([10]; ratio of Ki): 9 fold; preference for KOR in comparison to TSPO ([10]; ratio of Ki): ~20 fold; KOR Antag (%) [3]: 104.5%; DOR Antag (%) [4]: 93.2%; DOR Ag (%) [4]: –1.1%; MOR Antag (%) [7]: 96.9%; MOR Ag (%) [7]: 1.6%
<10%		1.59 ± 0.28		0.104 ± 0.035		0.39 ± 0.139	CCOC(=O)[C@@]12C[C@@H]1[C@@H](n1ccc3c(NC)nc(I)nc31)[C@H](O)[C@@H]2O [compound 39, Ethyl(1S,2R,3S,4R,5S)-2,3-dihydroxy-4-(2-iodo-4-(methylamino)-7H-pyrrolo[2,3-d]pyrimidin-7-yl)bicyclo[3.1.0]hexane-1-carboxylate]	MOR, inhibition of radioligand binding at 10 μM (class) [9]: ^c (30–50% inhibition of radioligand binding at 10 μM); TSPO, inhibition of radioligand binding at 10 μM (class) ([5]; Table 2): ^d (<30% inhibition of radioligand binding at 10 μM); βarrestin2 recruitment, Imax (% 120) ([12]; antagonism of 1 μM U69593 98): 77 ± 3 % 120
–66%	> 10	1.78 ± 0.41	35	0.0915 ± 0.0237	1.48 ± 0.45	0.344 ± 0.04	CCOC(=O)[C@@]12C[C@@H]1[C@@H](n1ccc3c(NC)nc(C#Cc4ccccc4)nc31)[C@H](O)[C@@H]2O [compound 40, Ethyl(1S,2R,3S,4R,5S)-2,3-dihydroxy-4-(4-(methylamino)-2-(phenylethynyl)-7H-pyrrolo[2,3-d]pyrimidin-7-yl)bicyclo[3.1.0]hexane-1-carboxylate]	inhibition at 10 µM [13]: 22%; βarrestin2 recruitment, Imax (% 120) ([12]; antagonism of 1 μM U69593 98): 76 ± 2 % 120
–312%		2.4 ± 0.09	44	0.852 ± 0.137	2.11 ± 0.59	0.228 ± 0.115	CCOC(=O)[C@@]12C[C@@H]1[C@@H](n1ccc3c(NC4CC4)nc(C#Cc4ccccc4)nc31)[C@H](O)[C@@H]2O [compound 41, Ethyl(1S,2R,3S,4R,5S)-4-(4-(cyclopropylamino)-2-(phenylethynyl)-7H-pyrrolo[2,3-d]pyrimidin-7-yl)-2,3-dihydroxybicyclo[3.1.0]hexane-1-carboxylate]	inhibition at 10 µM [13]: 25%; TSPO, inhibition of radioligand binding at 10 μM (class) ([5]; Table 2): ^c (30–50% inhibition of radioligand binding at 10 μM)
–13%	4.47 ± 1.33		34	1.4 ± 0.21	1.3 ± 0.53	0.791 ± 0.433	CCOC(=O)[C@@]12C[C@@H]1[C@@H](n1ccc3c(NCC4CC4)nc(C#Cc4ccccc4)nc31)[C@H](O)[C@@H]2O [compound 42, Ethyl(1S,2R,3S,4R,5S)-4-(4-((cyclopropylmethyl)amino)-2-(phenylethynyl)-7H-pyrrolo[2,3-d]pyrimidin-7-yl)-2,3-dihydroxybicyclo[3.1.0]hexane-1-carboxylate]	inhibition at 10 µM [13]: 20%; Ki [14]: 1.11 µM; DOR, inhibition of radioligand binding at 10 μM (class) ([6]; Table 2): ^c (30–50% inhibition of radioligand binding at 10 μM)
–9%				2.61 ± 0.66		0.098 ± 0.03	CCCCC(=O)[C@@]12C[C@@H]1[C@@H](n1ccc3c(NC)nc(C#Cc4ccc(Cl)s4)nc31)[C@H](O)[C@@H]2O [compound 44]	Ki [1]: > 10 µM; KOR Antag (%) [3]: 65.5%; DOR Antag (%) [4]: 20.3%; DOR Ag (%) [4]: 6.7%; MOR Antag (%) [7]: –44.4%; MOR Ag (%) [7]: 6.0%
24%							O[C@@H]1[C@H](O)[C@@H]2C[C@@H]2[C@H]1n1cnc2c(NCCc3ccccc3)nc(C#Cc3ccccc3)nc21 [compound 51]	Ki [14]: 1.48 µM; TSPO, inhibition of radioligand binding at 10 μM (class) ([5]; Table 4): ^g (<30% inhibition of radioligand binding at 10 μM); DOR, inhibition of radioligand binding at 10 μM (class) ([6]; Table 4): ^g (<30% inhibition of radioligand binding at 10 μM)
7%	0.877 ± 0.368						O[C@@H]1[C@H](O)[C@@H]2C[C@@H]2[C@H]1n1cnc2c(NCCc3ccccc3)nc(C#Cc3ccccc3Cl)nc21 [compound 52]	Ki [14]: 1.82 µM; DOR, inhibition of radioligand binding at 10 μM (class) ([6]; Table 4): ^f (30–50% inhibition of radioligand binding at 10 μM)
	4.21 ± 1.84	2.55 ± 0.66			1.44 ± 0.75	0.178 ± 0.032	O[C@@H]1[C@H](O)[C@@H]2C[C@@H]2[C@H]1n1ccc2c(NC(C3CC3)C3CC3)nc(C#Cc3ccccc3)nc21 [compound 56, (1R,2R,3S,4R,5S)-4-(4-((Dicyclopropylmethyl)amino)-2-(phenylethynyl)-7H-pyrrolo[2,3-d]pyrimidin-7-yl)bicyclo[3.1.0]hexane-2,3-diol]	KOR, inhibition of radioligand binding at 10 μM (class) ([10]; Table 5, 10 μM): ^d (30–50% inhibition of radioligand binding at 10 μM); Ki [8]: 0.65 µM; Ki [14]: 0.67 µM
							Oc1ccc2c3c1O[C@H]1c4[nH]c5c(c4C[C@@]4(O)[C@@H](C2)N(CC2CC2)CC[C@]314)C[C@@]1(O)[C@H]2Cc3ccc(O)c4c3[C@@]1(CCN2CC1CC1)[C@H]5O4 [compound 120, Norbinaltorphimine, reference compound]	βarrestin2 recruitment, Imax (% 120) [12]: 100 % 120
